Measurements reported in US5861476A, “Peptides and compounds that bind to the IL-1 receptor” (Affymax Technologies N.V., priority 1995, dated 1999).
pIC50: −log10 of the molar value. Read-outs that look alike come from different tables or passages of the source. Where a SMILES comes first, the peptide text is derived from it. [ ]: non-standard residue; d: D form. Bpa = N[C@@H](Cc1ccc(C(=O)c2ccccc2)cc1)C(=O)O; Pip = O=C(O)[C@@H]1CCCCN1; Aze = O=C(O)[C@@H]1CCN1; Sar = CNCC(=O)O

Molecular target: T1, IL-1RtI (Homo sapiens, UniProt P14778)
T1 construct: made in house; host or cells: recombinant host cells (one form soluble from baculovirus transformed host cells; another PIG-tailed and cleaved from the cell surface)
T1 sequence (P14778 18-336): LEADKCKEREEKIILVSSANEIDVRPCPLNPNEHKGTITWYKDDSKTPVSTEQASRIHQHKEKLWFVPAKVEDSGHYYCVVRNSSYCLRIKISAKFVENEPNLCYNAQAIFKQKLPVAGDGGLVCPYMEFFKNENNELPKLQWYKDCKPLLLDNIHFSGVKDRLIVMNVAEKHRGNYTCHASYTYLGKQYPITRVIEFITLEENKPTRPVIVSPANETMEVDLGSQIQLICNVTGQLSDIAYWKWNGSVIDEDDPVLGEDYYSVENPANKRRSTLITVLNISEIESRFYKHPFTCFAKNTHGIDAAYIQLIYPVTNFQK
Experiment: Inhibition of 125I-IL-1α binding to IL-1RtI (Example 3)
Experimental: This example provides the results of experiments conducted to determine an approximate IC50 for certain peptides of the invention. IC50 as used herein refers to the concentration of a compound which will inhibit 50% of the binding between a receptor and its ligand, e.g. IL-1RtI and IL-1. Stock solutions of each peptide were prepared. The appropriate amount of the peptide was dissolved in DMSO, and then nineteen volumes of binding buffer (RPMI 1640, 1% BSA, 20 mM HEPES, pH 7.2-7.3, and 0.1% sodium azide) were added to yield a 1 mM peptide, 5% DMSO stock solution.
One assay utilized a truncated IL-1RtI which had been immobilized on 96-well plates with an appropriate antibody, typically a non-blocking high affinity antibody. In other assays, cells expressing "full-length" IL-1RtI were used with results that yielded IC50 values about 5 to 10 fold lower than those determined using the truncated receptor. The cells were seeded onto Falcon 3072 96-well plates at about 10^5 cells per well, and the plates were incubated overnight at 37° C. in media containing serum. The following morning, the cells were checked to ensure that the cells were confluent and adhered to the bottom of the wells.
According to either assay protocol, the plates were then washed three times with binding buffer, and then 50 μl of binding buffer and 25 μl of a peptide solution (either the stock solution or a dilution thereof; each stock was subjected to five three fold dilutions) were added to each well. Then 25 μl of binding buffer containing ^125 I-IL-1α (final concentration of 90 pM) were added to each well to begin the assay. Each assay was carried out in duplicate. The plates were then incubated for two hours at 4° C. For peptides having particularly high affinities, the assay was run in 24 well plates allowing for higher levels of ligand (possible total volume of 2.5 ml instead of 100 μl in the 96 well plate), thereby minimizing the potential for ligand depletion.
After the two hour incubation, the wells were rinsed three times with ice cold PBS (a semi-automated cell harvesting device was used to conduct the rinse). The receptors or cells were then detached from the plates by adding 100 μl of 0.1N NaOH to each well and incubating the plates at room temperature for 20 minutes. After the 20 minute incubation, about 75 μl of the suspension was counted on a gamma counter, and the IC50 for each peptide was determined using computer assistance and the results of the gamma counting.

[1] = inhibition of 125I-IL-1α binding to IL-1RtI, soluble peptide unless marked *

| pIC50 [1] | pIC50 | Compound |
| --- | --- | --- |
| 6.30 |  | C[C@H](NC(=O)CNC(=O)[C@@H]1CCCN1C(=O)[C@@H](NC(=O)[C@H](Cc1c[nH]c2ccccc12)NC(=O)[C@H](CCC(=O)O)NC(=O)[C@@H](N)Cc1ccccc1)[C@@H](C)O)C(=O)N[C@@H](Cc1c[nH]c2ccccc12)C(=O)N[C@@H](CCC(N)=O)C(=O)N1CC[C@H]1C(=O)N[C@@H](Cc1ccc(O)cc1)C(N)=O [FEWTPGAWQJY--NH2] (H-FEWTPGAWQ[Aze]Y-NH2) |
| ≥ 6.30 |  | C[C@@H](O)[C@H](NC(=O)[C@H](Cc1c[nH]c2ccccc12)NC(=O)[C@H](CCC(=O)O)NC(=O)[C@@H](N)Cc1ccccc1)C(=O)N1CCC[C@H]1C(=O)NCC(=O)N[C@@H](Cc1c[nH]c2ccccc12)C(=O)N[C@@H](Cc1ccc(O)cc1)C(=O)N[C@@H](CCC(N)=O)C(=O)N1CC[C@H]1C(=O)N[C@@H](Cc1ccc(O)cc1)C(N)=O [FEWTPGWYQJY--NH2] (H-FEWTPGWYQ[Aze]Y-NH2) |
| ≥ 4.00 |  | C[C@H](NC(=O)[C@H](Cc1ccc(O)cc1)NC(=O)CNC(=O)[C@@H]1CCCN1C(=O)[C@@H](NC(=O)[C@H](Cc1c[nH]c2ccccc12)NC(=O)[C@H](CCC(=O)O)NC(=O)[C@@H](N)Cc1ccccc1)[C@@H](C)O)C(=O)N[C@@H](CCC(N)=O)C(=O)N1CC[C@H]1C(=O)N[C@@H](Cc1ccc(O)cc1)C(N)=O [FEWTPGYAQJY--NH2] (H-FEWTPGYAQ[Aze]Y-NH2) |
| < 4.00 |  | C[C@H](NC(=O)[C@H](Cc1c[nH]c2ccccc12)NC(=O)[C@H](Cc1ccc(O)cc1)NC(=O)CNC(=O)[C@@H]1CCCN1C(=O)[C@@H](NC(=O)[C@H](Cc1c[nH]c2ccccc12)NC(=O)[C@H](CCC(=O)O)NC(=O)[C@@H](N)Cc1ccccc1)[C@@H](C)O)C(=O)N1CC[C@H]1C(=O)N[C@@H](Cc1ccc(O)cc1)C(N)=O [FEWTPGYWAJY--NH2] (H-FEWTPGYWA[Aze]Y-NH2) |
| ≥ 4.00 |  | C[C@H](NC(=O)[C@@H]1CCN1C(=O)[C@H](CCC(N)=O)NC(=O)[C@H](Cc1c[nH]c2ccccc12)NC(=O)[C@H](Cc1ccc(O)cc1)NC(=O)CNC(=O)[C@@H]1CCCN1C(=O)[C@@H](NC(=O)[C@H](Cc1c[nH]c2ccccc12)NC(=O)[C@H](CCC(=O)O)NC(=O)[C@@H](N)Cc1ccccc1)[C@@H](C)O)C(N)=O [FEWTPGYWQJA--NH2] (H-FEWTPGYWQ[Aze]A-NH2) |
| ≥ 6.30 |  | C[C@@H](O)[C@H](NC(=O)[C@H](Cc1c[nH]c2ccccc12)NC(=O)[C@H](CCC(=O)O)NC(=O)[C@@H](N)Cc1ccccc1)C(=O)N1CCC[C@H]1C(=O)N[C@@H](CC(N)=O)C(=O)N[C@@H](Cc1ccc(O)cc1)C(=O)N[C@@H](Cc1c[nH]c2ccccc12)C(=O)N[C@@H](CCC(N)=O)C(=O)N1CC[C@H]1C(=O)N[C@@H](Cc1ccc(O)cc1)C(N)=O [FEWTPNYWQJY--NH2] (H-FEWTPNYWQ[Aze]Y-NH2) |
| ≥ 6.30 |  | C[C@@H](O)[C@H](NC(=O)[C@H](Cc1c[nH]c2ccccc12)NC(=O)[C@H](CCC(=O)O)NC(=O)[C@@H](N)Cc1ccccc1)C(=O)N1CCC[C@H]1C(=O)N(C)CC(=O)N[C@@H](Cc1c[nH]c2ccccc12)C(=O)N[C@@H](Cc1ccc(O)cc1)C(=O)N[C@@H](CCC(N)=O)C(=O)N1CC[C@H]1C(=O)N[C@@H](Cc1ccc(O)cc1)C(N)=O [FEWTPSarWYQJY--NH2] (H-FEWTP[Sar]WYQ[Aze]Y-NH2) |
| ≥ 6.30 |  | C[C@@H](O)[C@H](NC(=O)[C@H](Cc1c[nH]c2ccccc12)NC(=O)[C@H](CCC(=O)O)NC(=O)[C@@H](N)Cc1ccccc1)C(=O)N1CCCC[C@H]1C(=O)NCC(=O)N[C@@H](Cc1ccc(O)cc1)C(=O)N[C@@H](Cc1c[nH]c2ccccc12)C(=O)N[C@@H](CCC(N)=O)C(=O)N1CC[C@H]1C(=O)N[C@@H](Cc1ccc(O)cc1)C(N)=O [FEWTPecGYWQJY--NH2] (H-FEWT[Pip]GYWQ[Aze]Y-NH2) |
|  | > 6.30 | C[C@@H](O)[C@H](NC(=O)[C@H](Cc1c[nH]c2ccccc12)NC(=O)[C@H](CCC(=O)O)NC(=O)[C@@H](N)Cc1ccccc1)C(=O)N1CCC[C@H]1C(=O)N[C@H](CC(N)=O)C(=O)N[C@@H](Cc1ccc(O)cc1)C(=O)N[C@@H](Cc1ccc(O)cc1)C(=O)N[C@@H](CCC(N)=O)C(=O)N1CC[C@H]1C(=O)N[C@@H](Cc1ccc(O)cc1)C(N)=O [FEWTPnYYQJY-NH2] (H-FEWTP[dN]YYQ[Aze]Y-NH2) |
|  | > 6.30 | C[C@@H](O)[C@H](NC(=O)[C@H](Cc1c[nH]c2ccccc12)NC(=O)[C@H](CCC(=O)O)NC(=O)[C@@H](N)Cc1ccccc1)C(=O)N1CCC[C@H]1C(=O)N[C@H](CO)C(=O)N[C@@H](Cc1ccc(O)cc1)C(=O)N[C@@H](Cc1ccc(O)cc1)C(=O)N[C@@H](CCC(N)=O)C(=O)N1CC[C@H]1C(=O)N[C@@H](Cc1ccc(O)cc1)C(N)=O [FEWTPsYYQJY-NH2] (H-FEWTP[dS]YYQ[Aze]Y-NH2) |
| ≥ 6.30 |  | CC(C)[C@@H](NC(=O)[C@@H]1CCCN1C(=O)[C@@H](NC(=O)[C@H](Cc1c[nH]c2ccccc12)NC(=O)[C@H](CCC(=O)O)NC(=O)[C@@H](N)Cc1ccccc1)[C@@H](C)O)C(=O)N[C@@H](Cc1ccc(O)cc1)C(=O)N[C@@H](Cc1c[nH]c2ccccc12)C(=O)N[C@@H](CCC(N)=O)C(=O)N1CC[C@H]1C(=O)N[C@@H](Cc1ccc(O)cc1)C(N)=O [FEWTPvYWQJY--NH2] (H-FEWTP[dV]YWQ[Aze]Y-NH2) |
| ≥ 6.30 |  | C[C@@H](O)[C@H](NC(=O)[C@H](Cc1c[nH]c2ccccc12)NC(=O)[C@H](CCC(=O)O)NC(=O)[C@@H](N)Cc1ccccc1)C(=O)N(C)CC(=O)NCC(=O)N[C@@H](Cc1ccc(O)cc1)C(=O)N[C@@H](Cc1c[nH]c2ccccc12)C(=O)N[C@@H](CCC(N)=O)C(=O)N1CC[C@H]1C(=O)N[C@@H](Cc1ccc(O)cc1)C(N)=O [FEWTSarGYWQJY--NH2] (H-FEWT[Sar]GYWQ[Aze]Y-NH2) |
| ≥ 4.00 |  | CC(C)[C@H](NC(=O)[C@@H](NC(=O)[C@H](Cc1c[nH]c2ccccc12)NC(=O)[C@H](CCC(=O)O)NC(=O)[C@@H](N)Cc1ccccc1)[C@@H](C)O)C(=O)N1CCC[C@H]1C(=O)N[C@@H](Cc1ccc(O)cc1)C(=O)N[C@@H](Cc1c[nH]c2ccccc12)C(=O)N[C@@H](CCC(N)=O)C(=O)N1CC[C@H]1C(=O)N[C@@H](Cc1ccc(O)cc1)C(N)=O [FEWTVPYWQJY--NH2] (H-FEWTVPYWQ[Aze]Y-NH2) |
| ≥ 6.30 |  | C[C@@H](O)[C@H](NC(=O)[C@H](Cc1c[nH]c2ccccc12)NC(=O)[C@H](CCC(=O)O)NC(=O)[C@@H](N)Cc1ccccc1)C(=O)N1CCC[C@@H]1C(=O)NCC(=O)N[C@@H](Cc1ccc(O)cc1)C(=O)N[C@@H](Cc1c[nH]c2ccccc12)C(=O)N[C@@H](CCC(N)=O)C(=O)N1CC[C@H]1C(=O)N[C@@H](Cc1ccc(O)cc1)C(N)=O [FEWTpGYWQJY--NH2] (H-FEWT[dP]GYWQ[Aze]Y-NH2) |

| Compound | pIC50 [1] | pIC50 |
| --- | --- | --- |
| C[C@@H](O)[C@H](NC(=O)[C@H](Cc1c[nH]c2ccccc12)NC(=O)[C@H](CCC(=O)O)NC(=O)[C@@H](N)Cc1ccccc1)C(=O)N1CCC[C@H]1C(=O)NCC(=O)N[C@@H](Cc1ccc(C(=O)c2ccccc2)cc1)C(=O)N[C@@H](Cc1ccc(O)cc1)C(=O)N[C@@H](CCC(N)=O)C(=O)N1CC[C@H]1C(=O)N[C@@H](Cc1ccc(O)cc1)C(N)=O [FEWTPG--Bpa--YQJY--NH2] (H-FEWTPG[Bpa]YQ[Aze]Y-NH2) | ≥ 6.30 |  |
| C[C@@H](O)[C@H](NC(=O)[C@H](Cc1c[nH]c2ccccc12)NC(=O)[C@H](CCC(=O)O)NC(=O)[C@@H](N)Cc1ccccc1)C(=O)N1CCC[C@H]1C(=O)NCC(=O)N[C@@H](Cc1ccc(O)cc1)C(=O)N[C@@H](Cc1ccc(C(=O)c2ccccc2)cc1)C(=O)N[C@@H](CCC(N)=O)C(=O)N1CC[C@H]1C(=O)N[C@@H](Cc1ccc(O)cc1)C(N)=O [FEWTPGY--Bpa--QJY--NH2] (H-FEWTPGY[Bpa]Q[Aze]Y-NH2) | ≥ 6.30 |  |
| C[C@@H](O)[C@H](NC(=O)[C@H](Cc1c[nH]c2ccccc12)NC(=O)[C@H](CCC(=O)O)NC(=O)[C@@H](N)Cc1ccccc1)C(=O)N1CCC[C@H]1C(=O)NCC(=O)N[C@@H](Cc1ccc(O)cc1)C(=O)N[C@@H](Cc1ccc(O)cc1)C(=O)N[C@@H](CCC(N)=O)C(=O)N1CC[C@H]1C(=O)N[C@@H](Cc1ccc(C(=O)c2ccccc2)cc1)C(N)=O [FEWTPGYYQJ--Bpa--NH2] (H-FEWTPGYYQ[Aze][Bpa]-NH2) | ≥ 4.00 |  |
